Activity calls are given as the source filed them. The calls are words filed in the database; no cut-off is given here.
Columns and labels:
[1] = tested on: HCT-8; assay: Cytotoxicity against human HCT-8 cells assessed as reduction in cell viability at 100 uM incubated for 72 hrs by SRB assay; format: functional, cell-based
[2] = tested on: HCT-116; assay: Cytotoxicity against human HCT-116 cells harboring p53 knock out gene assessed as reduction in cell viability incubated for 72 hrs by SRB assay; format: functional, cell-based; conditions: HCT-116, 72 h
[3] = Resistance index, ratio of IC50 for cytotoxicity against human HCT-116 cells harboring p53 knock out gene to IC50 for cytotoxicity against human HCT-116 cells; format: functional
[4] = tested on: HCT-8; assay: Cytotoxicity against human HCT-8 cells assessed as reduction in cell viability incubated for 72 hrs by SRB assay; conditions: HCT-8, 72 h
[5] = tested on: HCT-8; assay: Cytotoxicity against 5-FU resistant human HCT-8 cells assessed as reduction in cell viability incubated for 72 hrs by SRB assay; format: functional, cell-based; conditions: HCT-8, 72 h
[6] = Resistance index, ratio of IC50 for cytotoxicity against 5-FU resistant human HCT-8 cells to IC50 for cytotoxicity against human HCT-8 cells; format: functional
[7] = tested on: HCT-116; assay: Cytotoxicity against human HCT-116 cells assessed as reduction in cell viability incubated for 72 hrs by SRB assay; conditions: HCT-116, 72 h
[8] = tested on: HCT-8; assay: Inhibition of Wnt/beta-Catenin signaling in 5-FU resistant human HCT-8 cells assessed as reduction in survivin expression incubated for 24 hrs by Western blot analysis; format: cell-based; conditions: dose 20-100 µM
[9] = tested on: HCT-8; assay: Inhibition of Wnt/beta-Catenin signaling in 5-FU resistant human HCT-8 cells assessed as reduction in cyclin D1 expression incubated for 24 hrs by Western blot analysis; format: cell-based; conditions: dose 20-100 µM
[10] = target: T1, Catenin beta-1 (Homo sapiens) (UniProt P35222); assay: Degradation of beta-catenin (unknown origin) transfected in 5-FU resistant human HCT-8 cells assessed as reduction in survivin mRNA expression at 50 uM incubated for 24 hrs by qRT-PCR analysis; format: cell-based
T1 sequence (whole entry): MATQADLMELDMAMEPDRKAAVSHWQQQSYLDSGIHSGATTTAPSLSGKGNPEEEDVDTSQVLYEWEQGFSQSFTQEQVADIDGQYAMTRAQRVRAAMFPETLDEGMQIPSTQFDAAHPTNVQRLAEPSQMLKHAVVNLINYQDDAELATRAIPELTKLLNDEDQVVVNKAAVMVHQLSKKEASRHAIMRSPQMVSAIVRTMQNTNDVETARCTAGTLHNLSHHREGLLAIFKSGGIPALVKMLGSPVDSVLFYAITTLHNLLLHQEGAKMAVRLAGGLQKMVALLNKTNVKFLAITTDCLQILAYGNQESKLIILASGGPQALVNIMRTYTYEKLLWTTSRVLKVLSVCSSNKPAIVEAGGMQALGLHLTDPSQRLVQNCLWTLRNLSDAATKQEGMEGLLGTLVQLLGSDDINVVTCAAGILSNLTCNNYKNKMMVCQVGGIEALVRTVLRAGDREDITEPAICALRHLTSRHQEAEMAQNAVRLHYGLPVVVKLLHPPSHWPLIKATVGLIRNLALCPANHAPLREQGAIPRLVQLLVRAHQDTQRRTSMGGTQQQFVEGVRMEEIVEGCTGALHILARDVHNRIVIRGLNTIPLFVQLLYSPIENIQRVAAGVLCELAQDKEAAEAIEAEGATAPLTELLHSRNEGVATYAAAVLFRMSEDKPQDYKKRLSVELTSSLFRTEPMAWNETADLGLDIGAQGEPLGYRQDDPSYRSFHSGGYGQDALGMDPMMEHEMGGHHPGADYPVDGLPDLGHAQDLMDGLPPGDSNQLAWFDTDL

[11] = tested on: HCT-8; assay: Effect on beta-Catenin mRNA expression in human HCT-8 cells at 100 uM incubated for 24 hrs by qRT-PCR analysis; format: functional, cell-based
[12] = tested on: SW480; assay: Cytotoxicity against human SW480 cells assessed as reduction in cell viability incubated for 72 hrs by SRB assay; conditions: SW480, 72 h
[13] = tested on: HCT-8; assay: Inhibition of Wnt/beta-Catenin signaling in 5-FU resistant human HCT-8 cells assessed as reduction in beta-catenin level incubated for 24 hrs by Western blot analysis; format: cell-based; conditions: dose 20-100 µM
[14] = target: T1, Catenin beta-1 (Homo sapiens); assay: Degradation of beta-catenin (unknown origin) transfected in human HCT-8 cells assessed as reduction in survivin mRNA expression at 50 uM incubated for 24 hrs by qRT-PCR analysis; format: cell-based
[15] = target: T1, Catenin beta-1 (Homo sapiens); assay: Degradation of beta-Catenin in human HCT-8 cells assessed as reduction in Wnt-3a-induced beta-Catenin level at 50 to 100 uM incubated for 24 hrs by Western blot analysis; format: cell-based; conditions: dose 50-100 µM
[16] = tested on: HT-29; assay: Cytotoxicity against human HT-29 cells assessed as reduction in cell viability incubated for 72 hrs by SRB assay; conditions: HT-29, 72 h
[17] = tested on: HCT-8; assay: Inhibition of Wnt/beta-Catenin signaling in human HCT-8 cells assessed as reduction in c-myc expression incubated for 24 hrs by Western blot analysis; format: cell-based; conditions: dose 20-100 µM
[18] = target: T1, Catenin beta-1 (Homo sapiens); assay: Degradation of beta-catenin (unknown origin) transfected in 5-FU resistant human HCT-8 cells assessed as reduction in c-myc mRNA expression at 50 uM incubated for 24 hrs by qRT-PCR analysis; format: cell-based
[19] = tested on: HCT-8; assay: Effect on beta-Catenin mRNA expression in 5-FU resistant human HCT-8 cells at 50 to 100 uM incubated for 24 hrs by qRT-PCR analysis; format: functional, cell-based; conditions: dose 50-100 µM
[20] = tested on: LoVo; assay: Cytotoxicity against human LoVo cells assessed as reduction in cell viability incubated for 72 hrs by SRB assay
[21] = target: T1, Catenin beta-1 (Homo sapiens); assay: Degradation of beta-catenin (unknown origin) transfected in human HCT-8 cells assessed as reduction in c-myc mRNA expression at 50 uM incubated for 24 hrs by qRT-PCR analysis; format: cell-based
[22] = target: T1, Catenin beta-1 (Homo sapiens); assay: Degradation of beta-catenin (unknown origin) transfected in 5-FU resistant human HCT-8 cells assessed as reduction in cyclin D1 mRNA expression at 50 uM incubated for 24 hrs by qRT-PCR analysis; format: cell-based
[23] = tested on: HCT-8; assay: Inhibition of Wnt/beta-Catenin signaling in human HCT-8 cells assessed as reduction in cyclin D1 expression incubated for 24 hrs by Western blot analysis; format: cell-based; conditions: dose 20-100 µM
[24] = tested on: HCT-8; assay: Inhibition of Wnt/beta-Catenin signaling in human HCT-8 cells assessed as reduction in beta-catenin level incubated for 24 hrs by Western blot analysis; format: cell-based; conditions: dose 20-100 µM
[25] = target: T1, Catenin beta-1 (Homo sapiens); assay: Degradation of beta-catenin (unknown origin) transfected in human HCT-8 cells assessed as reduction in cell viability at 50 uM incubated for 24 hrs by SRB assay; format: cell-based
[26] = target: T1, Catenin beta-1 (Homo sapiens); assay: Degradation of beta-catenin (unknown origin) transfected in human HCT-8 cells assessed as reduction in cyclin D1 mRNA expression at 50 uM incubated for 24 hrs by qRT-PCR analysis; format: cell-based
[27] = tested on: HCT-8; assay: Inhibition of Wnt/beta-Catenin signaling in human HCT-8 cells assessed as reduction in survivin expression incubated for 24 hrs by Western blot analysis; format: cell-based; conditions: dose 20-100 µM
[28] = tested on: HCT-8; assay: Effect on beta-Catenin mRNA expression in human HCT-8 cells at 50 uM incubated for 24 hrs by qRT-PCR analysis; format: functional, cell-based
[29] = target: T1, Catenin beta-1 (Homo sapiens); assay: Degradation of beta-catenin (unknown origin) transfected in 5-FU resistant human HCT-8 cells assessed as reduction in cell viability at 50 uM incubated for 24 hrs by SRB assay; format: cell-based
[30] = tested on: HCT-8; assay: Inhibition of Wnt/beta-Catenin signaling in 5-FU resistant human HCT-8 cells assessed as reduction in c-myc expression incubated for 24 hrs by Western blot analysis; format: cell-based; conditions: dose 20-100 µM
[31] = Cytotoxicity against human RKOE6 cells assessed as reduction in cell viability incubated for 72 hrs by SRB assay; conditions: RKOE6, 72 h

CC[C@H]1C(=O)O[C@@H]2CCCn3cccc3[C@H]21
inhibition [1]: inactive

CC[C@@H]1C(=O)O[C@@H]2CCCn3cccc3[C@@H]12
inhibition [1]: inactive

C=C1C(=O)O[C@@H]2CCCn3c(C=O)ccc3[C@@H]12
inhibition [1]: inactive

CCCCc1ccc2n1CCC[C@H]1OC(=O)[C@@H](C)[C@H]21
inhibition [1]: inactive

O=c1[nH]cc(F)c(=O)[nH]1 [FLUOROURACIL]
IC50 [2]: 4.3 µM | Ratio IC50 [3]: 2.5 | IC50 [4]: 2.2 µM | IC50 [5]: 47 µM | Ratio IC50 [6]: 21 | IC50 [7]: 1.7 µM

C=C1C(=O)O[C@@H]2CCCn3cccc3[C@@H]12
inhibition [8]: Dose-dependent effect | inhibition [9]: Dose-dependent effect | Activity [10]: inactive | Activity [11]: inactive | IC50 [12]: 16.8 µM | inhibition [13]: Dose-dependent effect | Activity [14]: inactive | inhibition [1]: inactive | Activity [15]: Active | IC50 [16]: 8.52 µM | inhibition [17]: Dose-dependent effect | Activity [18]: inactive | IC50 [2]: 14 µM | Activity [19]: inactive | IC50 [20]: 10.2 µM | Ratio IC50 [3]: 1 | Activity [21]: inactive | Activity [22]: inactive | inhibition [23]: Dose-dependent effect | inhibition [24]: Dose-dependent effect | IC50 [4]: 11 µM | Activity [25]: inactive | Activity [26]: inactive | IC50 [5]: 11 µM | Ratio IC50 [6]: 1 | IC50 [7]: 13 µM | inhibition [27]: Dose-dependent effect | Activity [28]: Active | Activity [29]: inactive | inhibition [30]: Dose-dependent effect | IC50 [31]: 7.93 µM

Reference: ChEMBL document CHEMBL4680309, “Discovery of a potent β-catenin destabilizer for overcoming the resistance of 5-fluorouracil in colorectal cancer” (Bioorg Med Chem, 2021)
